Patent US11560597B2, “Application of epigenetic chromosomal interactions in cancer diagnostics” (Oxford BioDynamics, PLC, priority 2016, dated 2023)
Where “and” joins values, the source holds several entries; their conditions need not be identical. Identical values can stand only once. Entries after “also recorded” stand apart in the source; their conditions may differ.

Assays:
[1] = test system: MMP1 chromosome conformations; experiment: MMP-1 3C quantification in HL-60 (acute myeloid leukaemia) cells treated with GSK864; assay type: cell-based
Procedure: (§1) MMP-1 3C quantification with no-fixation controls and a formaldehyde treated samples. The exemplary cell lines used in this application are: • (a) DBTRG-05MG (glioblastoma). • (b) HL-60 (acute myeloid leukaemia).
The HL60 cell lines have been treated with the IDH1 inhibitor GSK864 over 24 hrs and 48 hrs.

[2] = test system: MMP1 chromosome conformations; experiment: MMP-1 3C quantification in DBTRG-05MG (glioblastoma) cells treated with GSK864; assay type: cell-based
Procedure: as §1
These cell lines have been treated with the IDH1 inhibitor GSK864 over 24 hrs and 48 hrs.

[3] = test system: MMP1 3C interaction; experiment: MMP1 3C interaction hydrolysis probe qPCR in BT142 cell line; details: BT142 cells, imatinib 1 μM
[4] = test system: cKIT 3C interaction ORF3_4_54711719_54715167_54736749_54740853_FR; experiment: cKIT 3C interaction PCR on imatinib treated BT142 cells; assay type: cell-based; details: 1 μm imatinib, 20 ng of template per well
Procedure: Example of novel data regarding the action of imatinib in the following imatinib responsive selected gene is described below. 20 ng of template was added to each well for samples treated with imatinib.
cKIT and exemplary data. The BT142 cells have been treated with 1 μm of imatinib. 20 ng of template was loaded into each well.
The product in well Cl has been confirmed as the cKIT interaction named above (ORF3_4_54711719_54715167_54736749_54740853_FR).

SMILES	Effect on MMP1 chromosome conformations (3C MMP1 copy number), in words ([1]; HL60 cell line, GSK864 1 μm, over 24 hrs and 48 hrs)	Cq ([1]; HL-60 cells, 48 hr GSK864)	Effect on MMP1 chromosome conformations (3C MMP1 copy number), in words ([2]; DBTRG cell line, GSK864 1 μm, over 24 hrs and 48 hrs)	Copy number in 20 ng ([2]; DBTRG cells, 24 hr, GSK 1 um, MMP1 3C)	MMP1 copy number ([3]; 20 ng of template per well)	Cq ([3]; MMP1 3C interaction)	cKIT 3C interaction in imatinib treated cells [4]
COc1c(C)cc(NC(=O)c2nn(Cc3ccc(F)cc3)c3c2CN(C(=O)c2ccc[nH]2)C[C@]3(C)C(N)=O)cc1C [GSK864]	quantitative differences; also recorded: binary quantitative difference; also recorded: direct action on 3C MMP1 copy number	40.33 and 37.5 and 37.11	binary difference; also recorded: direct action on 3C MMP1 copy number	NaN (NaN = 0 copies)			
Cc1ccc(NC(=O)c2ccc(CN3CCN(C)CC3)cc2)cc1Nc1nccc(-c2cccnc2)n1 [Imatinib]					37.22 and 26.43 and 31.45	35.64 and 36.15 and 35.89	completely absent
